This assay relates to P388 leukemia ip, CD2F1 mice, survival T/C. The assay is described as follows: NCI In Vivo Anticancer Drug Screen. Data for tumor model P388 Leukemia (intraperitoneal) in CD2F1 (CDF1) mice. Particulars: endpoint: median survival time, higher = longer survival. In short, it runs like this: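 Mice carrying the transplanted tumor received test compound or vehicle. Survival was recorded in each group, and the value is the treated-group measurement divided by that of the vehicle-treated control group.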

[1] abbreviates: dose: 50.0 mg/kg/injection, schedule: Q01DX009 (ip), vehicle: Klucel (hydroxypropylcellulose) (HPC).
Setting [2] is: dose: 100.0 mg/kg/injection, schedule: Q01DX009 (ip), vehicle: Klucel (hydroxypropylcellulose) (HPC).
Where [3] appears, read: dose: 200.0 mg/kg/injection, schedule: Q01DX009 (ip), vehicle: Klucel (hydroxypropylcellulose) (HPC).
Setting [4] is: dose: 50.0 mg/kg/injection, schedule: Q01DX009 (ip), vehicle: saline with Tween-80.
Where [5] appears, read: dose: 100.0 mg/kg/injection, schedule: Q01DX009 (ip), vehicle: saline with Tween-80.
[6] abbreviates: dose: 200.0 mg/kg/injection, schedule: Q01DX009 (ip), vehicle: saline with Tween-80.
[7] abbreviates: dose: 50.0 mg/kg/injection, schedule: Q01DX005 (ip), vehicle: Klucel (hydroxypropylcellulose) (HPC).
[8] abbreviates: dose: 100.0 mg/kg/injection, schedule: Q01DX005 (ip), vehicle: Klucel (hydroxypropylcellulose) (HPC).
Where [9] appears, read: dose: 200.0 mg/kg/injection, schedule: Q01DX005 (ip), vehicle: Klucel (hydroxypropylcellulose) (HPC).
Setting [10] is: dose: 50.0 mg/kg/injection, schedule: Q01DX005 (ip), vehicle: saline with Tween-80.
Where [11] appears, read: dose: 100.0 mg/kg/injection, schedule: Q01DX005 (ip), vehicle: saline with Tween-80.
Setting [12] is: dose: 60.0 mg/kg/injection, schedule: Q01DX005 (ip), vehicle: saline with Tween-80.
The mark [13] stands for this setting: dose: 120.0 mg/kg/injection, schedule: Q01DX005 (ip), vehicle: saline with Tween-80.
Setting [14] is: dose: 240.0 mg/kg/injection, schedule: Q01DX005 (ip), vehicle: saline with Tween-80.
Setting [15] is: dose: 50.0 mg/kg/injection, schedule: Q01DX009 (ip), vehicle: saline.
[16] abbreviates: dose: 100.0 mg/kg/injection, schedule: Q01DX009 (ip), vehicle: saline.

Each structure is given as a SMILES string. Several values for one entry are separate records, joined by “and”; a condition that tells them apart may be missing. Equal entries are not always repeated. Toxic doses and inconclusive results are not listed.

As to `Cc1c(Cl)cccc1NC(=O)NNC(=O)c1ccncc1`, the T/C was 90 % of control under setting [1], 88 % of control under setting [2] and 88 % of control under setting [3].

For the compound `CC(C)=CCc1c2c(c(O)c3c(=O)c(-c4ccc(O)c(O)c4)coc13)C=CC(C)(C)O2`, the T/C reads like this: (dose: 25.0 mg/kg/injection, schedule: Q01DX009 (ip), vehicle: saline with Tween-80) 99 % of control; under setting [4], 105 % of control; under setting [5], 99 % of control; under setting [6], 106 % of control.

As for `CC1CC[P+](c2ccccc2)(c2ccccc2)c2c1ccc1ccccc21` (stereo not drawn), the T/C (dose: 6.25 mg/kg/injection, schedule: Q04DX002 (ip), vehicle: saline) was 118 % of control and the T/C (dose: 12.5 mg/kg/injection, schedule: Q04DX002 (ip), vehicle: saline) is 108 % of control.

Consider `O=[N+]([O-])c1ccc(N2CCN(c3ccccc3)CC2)c2c1no[n+]2[O-]`, for which the T/C (dose: 37.5 mg/kg/injection, schedule: Q04DX003 (ip), vehicle: saline) was 105 % of control; the T/C (dose: 37.5 mg/kg/injection, schedule: Q04DX003 (ip), vehicle: suspension in saline) was 104 % of control; the T/C (dose: 75.0 mg/kg/injection, schedule: Q04DX003 (ip), vehicle: saline) was 100 % of control; the T/C (dose: 75.0 mg/kg/injection, schedule: Q04DX003 (ip), vehicle: suspension in saline) is 100 % of control; the T/C (dose: 150.0 mg/kg/injection, schedule: Q04DX003 (ip), vehicle: saline) is 97 % of control; the T/C (dose: 150.0 mg/kg/injection, schedule: Q04DX003 (ip), vehicle: suspension in saline) was 111 % of control. The T/C (dose: 300.0 mg/kg/injection, schedule: Q04DX003 (ip), vehicle: saline) was 101 % of control and the T/C (dose: 300.0 mg/kg/injection, schedule: Q04DX003 (ip), vehicle: suspension in saline) was 104 % of control.

In the case of `CC(Cl)CN(CC(C)Cl)C(=O)Oc1ccc(CC(N)C(=O)O)cc1` (stereo not drawn), the T/C by setting is: under setting [1], 91 % of control; under setting [2], 89 % of control; under setting [3], 97 % of control.

`Nc1cc2nc(=O)cc3n2c(n1)SC3`: the T/C runs as follows: under setting [7], 99 % of control; under setting [8], 100 % of control; under setting [9], 100 % of control.

Take `O=C(CSC1CCc2ccccc21)N/N=C/c1ccco1` (stereo not drawn): the T/C by setting is: under setting [7], 98 % of control; under setting [8], 100 % of control; under setting [9], 88 % of control.

For the compound `Fc1c(F)c(-c2c(F)c(F)c(OCC3CO3)c(F)c2F)c(F)c(F)c1OCC1CO1` (stereo not drawn), the T/C is 98 % of control under setting [1], 103 % of control under setting [2] and 102 % of control under setting [3].

`O=c1[nH]c(=O)c2cc([N+](=O)[O-])cc([N+](=O)[O-])c2[nH]1`: the T/C reads like this: (dose: 50.0 mg/kg/injection, schedule: Q04DX003 (ip), vehicle: saline) 118 % of control; (dose: 100.0 mg/kg/injection, schedule: Q04DX003 (ip), vehicle: saline) 89 % of control.

Regarding `COc1cc(Nc2ccccc2)c2c(c1N)C(=O)c1ccccc1C2=O`, the T/C by setting is: under setting [10], 91 % of control; under setting [11], 88 % of control.

For `CS1(C)=Nc2c([N+](=O)[O-])cc([N+](=O)[O-])cc2S(=O)(=O)N=1`, the T/C under setting [12] is 98 % of control, the T/C under setting [13] is 94 % of control and the T/C under setting [14] is 94 % of control.

Take `CC(C)(C)N=C(CCN1CCOCC1)Nc1cccc(Cl)c1`: the T/C under setting [4] is 100 % of control, the T/C under setting [5] is 96 % of control and the T/C under setting [6] is 97 % of control.

As for `OCC(CCc1c[nH]c2ccccc12)c1c[nH]c2ccccc12` (stereo not drawn), the T/C was 90 % of control (dose: 60.0 mg/kg/injection, schedule: Q01DX005 (ip), vehicle: Klucel (hydroxypropylcellulose) (HPC)); 90 % of control (dose: 120.0 mg/kg/injection, schedule: Q01DX005 (ip), vehicle: Klucel (hydroxypropylcellulose) (HPC)); 93 % of control (dose: 240.0 mg/kg/injection, schedule: Q01DX005 (ip), vehicle: Klucel (hydroxypropylcellulose) (HPC)).

Regarding `O=C(Cc1ccc2c(c1)OCO2)c1ccc(O)cc1O`, the T/C is, setting by setting: under setting [12], 99 % of control; under setting [13], 105 % of control; under setting [14], 98 % of control.

In the case of `Cc1c2ccncc2c(C)c2c1[nH]c1ccc(F)cc12`, the T/C reads like this: (dose: 16.25 mg/kg/injection, schedule: Q04DX002 (ip), vehicle: Klucel (hydroxypropylcellulose) (HPC)) 106 % of control; (dose: 32.5 mg/kg/injection, schedule: Q04DX002 (ip), vehicle: Klucel (hydroxypropylcellulose) (HPC)) 106 % of control.

As for `CC(COCNc1ccccc1)C(=O)O` (stereo not drawn), the T/C reads like this: under setting [1], 103 % of control; under setting [2], 103 % of control; under setting [3], 100 % of control.

As for `COC1=CC(=N/Cl)/C=CC/1=N/Cl`, the T/C is, setting by setting: (dose: 6.25 mg/kg/injection, schedule: Q01DX005 (ip), vehicle: saline) 115 % of control; (dose: 12.5 mg/kg/injection, schedule: Q01DX005 (ip), vehicle: saline) 110 % of control; (dose: 25.0 mg/kg/injection, schedule: Q01DX005 (ip), vehicle: saline) 115 % of control.

Regarding `O=C1C(=O)N(c2ccccc2)[C@]2(c3ccccc3)C1=C(c1ccccc1)N(c1ccccc1)C(=O)N2c1ccccc1`, the T/C is 97 % of control under setting [10]; 88 % of control under setting [11]; 88 % of control (dose: 200.0 mg/kg/injection, schedule: Q01DX005 (ip), vehicle: saline with Tween-80).

As for `OCC1=C(CO)CC=CC1`, the T/C under setting [12] is 96 % of control, the T/C under setting [13] was 96 % of control and the T/C under setting [14] is 95 % of control.

Consider `COc1ccc(NC(=S)C#N)cc1`, for which the T/C by setting is: (dose: 15.0 mg/kg/injection, schedule: Q01DX005 (ip), vehicle: saline with Tween-80) 99 % of control; (dose: 30.0 mg/kg/injection, schedule: Q01DX005 (ip), vehicle: saline with Tween-80) 99 % of control; under setting [12], 99 % of control and 117 % of control.

As to `O=C1CC(=O)N(CCc2ccncc2)C(=O)N1CCc1ccncc1`, the T/C (dose: 50.0 mg/kg/injection, schedule: Q01DX005 (ip), vehicle: saline) is 106 % of control and the T/C (dose: 100.0 mg/kg/injection, schedule: Q01DX005 (ip), vehicle: saline) is 106 % of control.

Regarding `O=C(O)C1Oc2cc3ccccc3cc2O1`, the T/C reads like this: under setting [15], 90 % of control; under setting [16], 90 % of control; (dose: 200.0 mg/kg/injection, schedule: Q01DX009 (ip), vehicle: saline) 97 % of control.

As to `O=C(OCC1OC(n2cc(C(F)(F)F)c(=O)[nH]c2=O)CC1O)c1ccc([N+](=O)[O-])cc1` (stereo not drawn), the T/C runs as follows: (dose: 6.25 mg/kg/injection, schedule: Q01DX005 (ip), vehicle: Klucel (hydroxypropylcellulose) (HPC)) 110 % of control; (dose: 12.5 mg/kg/injection, schedule: Q01DX005 (ip), vehicle: Klucel (hydroxypropylcellulose) (HPC)) 110 % of control; (dose: 25.0 mg/kg/injection, schedule: Q01DX005 (ip), vehicle: Klucel (hydroxypropylcellulose) (HPC)) 115 % of control; under setting [7], 161 % of control.

In the case of `CCCCCCCC/C=C\CCCCCCCCN1CCOCC1`, the T/C is, setting by setting: under setting [15], 97 % of control; under setting [16], 106 % of control.

As to `CC(C)(C)c1cc(C(=O)[O-])c([OH2+])c(C(C)(C)C)c1.CC(C)(C)c1cc(C(=O)[O-])c([OH2+])c(C(C)(C)C)c1.[Mn+2]`, the T/C under setting [12] is 106 % of control and 111 % of control; the T/C under setting [13] is 105 % of control and 121 % of control.

With `C(#CC12CC3CC(CC(C3)C1)C2)C12CC3CC(CC(C3)C1)C2`, the T/C was 98 % of control under setting [7], 92 % of control under setting [8] and 91 % of control under setting [9].

For the compound `COc1ccc2c(c1OC)C[N+]1(C)CCc3cc4c(cc3C1=C2)OCO4` (stereo not drawn), the T/C reads like this: (dose: 0.63 mg/kg/injection, schedule: Q01DX009 (ip), vehicle: water) 114 % of control; (dose: 1.25 mg/kg/injection, schedule: Q01DX009 (ip), vehicle: water) 108 % of control; (dose: 2.5 mg/kg/injection, schedule: Q01DX009 (ip), vehicle: water) 100 % of control; (dose: 5.0 mg/kg/injection, schedule: Q01DX009 (ip), vehicle: water) 101 % of control; (dose: 10.0 mg/kg/injection, schedule: Q01DX009 (ip), vehicle: water) 110 % of control.

(Values after PubChem BioAssay AID330 (DTP/NCI, 2004).)
